# According to US9708321B2, “Spiro-quinazolinone derivatives and their use as positive allosteric modulators of mGluR4” (Merck Patent GmbH, priority 2013, dated 2017):
# Biological target: T1, hmGluR4 (Homo sapiens, UniProt Q14833)
# T1 construct: host or cells: HEK293T
# Assay: HEK-293 mGluR4 cells cAMP assay with EC20 L-Glutamate (HTRF)
# Assay type: cell-based
# Settings: positive allosteric activity at EC20 L-Glutamate, 10 μM Forskolin, HEK293T mGluR4 cells, cAMP HTRF; read-out: hrmGluR4/HEK293T-hmGluR4 (EC50)
# In short: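 PAM mode in mGluR4 HEK293T suspension cells, glutamine-starved overnight; 10 μM forskolin (final) with EC20 L-glutamate (2.3 μM), 2000 cells/well, 30 min at 37 °C. cAMP measured by two-step HTRF after 60 min at room temperature. Basal control EC20 glutamate; EC100 400 μM glutamate (2×).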
# T1 sequence (Q14833 33-912): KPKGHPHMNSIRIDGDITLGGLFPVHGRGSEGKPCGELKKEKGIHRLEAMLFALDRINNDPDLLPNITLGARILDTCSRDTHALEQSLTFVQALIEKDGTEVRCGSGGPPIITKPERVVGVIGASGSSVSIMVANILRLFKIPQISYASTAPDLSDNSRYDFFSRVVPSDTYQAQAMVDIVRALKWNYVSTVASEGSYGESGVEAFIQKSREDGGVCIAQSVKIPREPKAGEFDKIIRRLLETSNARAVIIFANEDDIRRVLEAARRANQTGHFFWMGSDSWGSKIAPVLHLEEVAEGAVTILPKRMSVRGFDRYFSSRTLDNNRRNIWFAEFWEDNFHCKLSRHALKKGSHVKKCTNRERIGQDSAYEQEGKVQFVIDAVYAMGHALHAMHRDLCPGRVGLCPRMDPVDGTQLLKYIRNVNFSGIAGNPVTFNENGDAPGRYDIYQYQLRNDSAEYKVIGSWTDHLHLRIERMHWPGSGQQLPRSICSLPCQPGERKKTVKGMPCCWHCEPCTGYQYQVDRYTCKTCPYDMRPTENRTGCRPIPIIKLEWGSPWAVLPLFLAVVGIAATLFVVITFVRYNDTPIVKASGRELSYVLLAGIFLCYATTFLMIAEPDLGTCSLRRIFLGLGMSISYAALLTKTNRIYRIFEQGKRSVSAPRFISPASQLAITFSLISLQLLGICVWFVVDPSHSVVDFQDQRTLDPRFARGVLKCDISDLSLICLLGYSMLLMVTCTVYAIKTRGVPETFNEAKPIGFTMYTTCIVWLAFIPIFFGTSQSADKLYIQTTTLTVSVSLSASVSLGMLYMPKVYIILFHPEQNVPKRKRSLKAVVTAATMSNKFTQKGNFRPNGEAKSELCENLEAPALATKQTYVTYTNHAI
row,Compound,EC50
1,"CCC(c1ccccc1)N1CCC2(CC1)Nc1cc(Br)ccc1C(=O)N2c1ccc(Cl)cc1 (stereo not shown) [Compound 61, 7′-Bromo-3′-(4-chlorophenyl)-1-(1-phenylpropyl)-1′H-spiro[piperidine-4,2′-quinazolin]-4′(3′H)-one]",< 1000 nM
2,"COc1ccc(N2C(=O)c3ccc(-c4ccc(CN(C)C)o4)cc3NC23CCN(Cc2ccc(F)c(F)c2)CC3)cc1 [Compound 117, 1-(3,4-Difluorobenzyl)-7′-(5-((dimethylamino)methyl)furan-2-yl)-3′-(4-methoxyphenyl)-1′H-spiro[piperidine-4,2′-quinazolin]-4′(3′H)-one]",1000 to 10000 nM
3,"COc1cccc(N2C(=O)c3ccccc3NC23CCN(Cc2cc(Cl)ccc2Cl)CC3)c1 [Compound 115, 1-(2,5-Dichlorobenzyl)-3′-(3-methoxyphenyl)-1′H-spiro[piperidine-4,2′-quinazolin]-4′(3′H)-one]",1000 to 10000 nM
4,"COc1ccc(N2C(=O)c3ccc(OC)cc3NC23CCN(Cc2ccc(Cl)s2)CC3)cc1 [Compound 59, 1-((5-Chlorothiophen-2-yl)methyl)-7′-methoxy-3′-(4-methoxyphenyl)-1′H-spiro[piperidine-4,2′-quinazolin]-4′(3′H)-one]",< 1000 nM
5,"CC(c1ccccc1)N1CCC2(CC1)Nc1cc(Br)ccc1C(=O)N2c1ccc(Cl)cc1 (stereo not shown) [Compound 26, 7′-Bromo-3′-(4-chlorophenyl)-1-(1-phenylethyl)-1′H-spiro[piperidine-4,2′-quinazolin]-4′(3′H)-one]",< 1000 nM
6,"COc1ccc(N2C(=O)c3ccccc3NC23CN(Cc2ccc(C)cc2)C3)cc1 [Compound 72, 3′-(4-Methoxyphenyl)-1-(4-methylbenzyl)-1′H-spiro[azetidine-3,2′-quinazolin]-4′(3′H)-one]",1000 to 10000 nM
7,"COc1ccc(N2C(=O)c3ccccc3NC23CN(Cc2ccc4ccccc4c2)C3)cc1 [Compound 90, 3′-(4-Methoxyphenyl)-1-(naphthalen-2-ylmethyl)-1′H-spiro[azetidine-3,2′-quinazolin]-4′(3′H)-one]",1000 to 10000 nM
8,"COc1ccc(N2C(=O)c3ccccc3NC23CN(Cc2ccccc2Cl)C3)cc1 [Compound 50, 1-(2-Chlorobenzyl)-3′-(4-methoxyphenyl)-1′H-spiro[azetidine-3,2′-quinazolin]-4′(3′H)-one]",< 1000 nM
9,"Cn1cccc1CN1CCC2(CC1)Nc1cc(Br)ccc1C(=O)N2c1ccc(OC(F)(F)F)cc1 [Compound 120, 7′-Bromo-1-((1-methyl-1H-pyrrol-2-yl)methyl)-3′-(4-(trifluoromethoxy)phenyl)-1′H-spiro[piperidine-4,2′-quinazolin]-4′(3′H)-one]",1000 to 10000 nM
10,"O=C(OCC1CC1)c1ccc2c(c1)NC1(CCN(Cc3ccc(F)c(F)c3)CC1)N(c1ccc(OC(F)(F)F)cc1)C2=O [Compound 58, Cyclopropylmethyl 1-(3,4-difluorobenzyl)-4′-oxo-3′-(4-(trifluoromethoxy)phenyl)-3′,4′-dihydro-1′H-spiro[piperidine-4,2′-quinazoline]-7′-carboxylate]",< 1000 nM
11,"CC(c1ccc(F)c(F)c1)N1CCC2(CC1)Nc1cc(Br)ccc1C(=O)N2c1ccc(Cl)cc1 (stereo not shown) [Compound 7, 7′-Bromo-3′-(4-chlorophenyl)-1-(1-(3,4-difluorophenyl)ethyl)-1′H-spiro[piperidine-4,2′-quinazolin]-4′(3′H)-one]",< 1000 nM
12,"COc1ccc(N2C(=O)c3ccccc3NC23CN(Cc2ccc(Cl)c(Cl)c2)C3)cc1 [Compound 56, 1-(3,4-Dichlorobenzyl)-3′-(4-methoxyphenyl)-1′H-spiro[azetidine-3,2′-quinazolin]-4′(3′H)-one]",< 1000 nM
13,"CCc1ccc2c(c1)NC1(CCN(Cc3ccc(F)c(F)c3)CC1)N(c1ccc(OC)cc1)C2=O [Compound 63, 1-(3,4-Difluorobenzyl)-7′-ethyl-3′-(4-methoxyphenyl)-1′H-spiro[piperidine-4,2′-quinazolin]-4′(3′H)-one]",< 1000 nM
14,"O=C1c2ccc(C(F)(F)F)cc2NC2(CCN(Cc3cccc(Cl)c3)CC2)N1c1ccc(OC(F)(F)F)cc1 [Compound 10, 1-(3-Chlorobenzyl)-3′-(4-(trifluoromethoxy)phenyl)-7′-(trifluoromethyl)-1′H-spiro[piperidine-4,2′-quinazolin]-4′(3′H)-one]",< 1000 nM
15,"COc1ccc(N2C(=O)c3ccc(OC)cc3NC23CCN(Cc2cccc(C#N)c2)CC3)cc1 [Compound 100, 3-((7′-Methoxy-3′-(4-methoxyphenyl)-4′-oxo-3′,4′-dihydro-1′H-spiro[piperidine-4,2′-quinazolin]-1-yl)methyl)benzonitrile]",1000 to 10000 nM
16,"O=C1c2ccc(Br)cc2NC2(CCN(Cc3cccc4cnccc34)CC2)N1c1ccc(OC(F)(F)F)cc1 [Compound 27, 7′-Bromo-1-(isoquinolin-5-ylmethyl)-3′-(4-(trifluoromethoxy)phenyl)-1′H-spiro[piperidine-4,2′-quinazolin]-4′(3′H)-one]",< 1000 nM
17,"COc1ccc(N2C(=O)c3ccc(F)cc3NC23CCN(Cc2ccc(F)c(F)c2)CC3)cc1 [Compound 23, 1-(3,4-Difluorobenzyl)-7′-fluoro-3′-(4-methoxyphenyl)-1′H-spiro[piperidine-4,2′-quinazolin]-4′(3′H)-one]",< 1000 nM
18,"COc1ccc(N2C(=O)c3ccccc3NC23CCN(Cc2ccccc2C#N)CC3)cc1 [Compound 116, 2-((3′-(4-Methoxyphenyl)-4′-oxo-3′,4′-dihydro-1′H-spiro[piperidine-4,2′-quinazolin]-1-yl)methyl)benzonitrile]",1000 to 10000 nM
19,"COc1ccc(N2C(=O)c3ccc(-c4cccnc4)cc3NC23CCN(Cc2ccc(F)c(F)c2)CC3)cc1 [Compound 40, 1-(3,4-Difluorobenzyl)-3′-(4-methoxyphenyl)-7′-(pyridin-3-yl)-1′H-spiro[piperidine-4,2′-quinazolin]-4′(3′H)-one]",< 1000 nM
20,"O=C1c2ccc(Br)cc2NC2(CCN(Cc3ccncc3)CC2)N1c1ccc(OC(F)(F)F)cc1 [Compound 97, 7′-Bromo-1-(pyridin-4-ylmethyl)-3′-(4-(trifluoromethoxy)phenyl)-1′H-spiro[piperidine-4,2′-quinazolin]-4′(3′H)-one]",1000 to 10000 nM
21,"O=C(Nc1ccc(OC(F)(F)F)cc1)c1ccc(Br)cc1O [Compound 125, 4-Bromo-2-hydroxy-N-(4-trifluoromethoxy-phenyl)-benzamide]",< 1000 nM
22,"N#Cc1cccc(CN2CCC3(CC2)Nc2cc(C(F)(F)F)ccc2C(=O)N3c2ccc(OC(F)(F)F)cc2)c1 [Compound 42, 3-((4′-Oxo-3′-(4-(trifluoromethoxy)phenyl)-7′-(trifluoromethyl)-3′,4′-dihydro-1′H-spiro[piperidine-4,2′-quinazolin]-1-yl)methyl)benzonitrile]",< 1000 nM
23,"COc1ccc(N2C(=O)c3ccccc3NC23CCC(Nc2ccccc2)CC3)cc1 (stereo not shown) [Compound 44, 3′-(4-Methoxyphenyl)-4-(phenylamino)-1′H-spiro[cyclohexane-1,2′-quinazolin]-4′(3′H)-one]",< 1000 nM
24,"COc1ccc(N2C(=O)c3ccccc3NC23CN(Cc2ccccc2)C3)cc1 [Compound 92, 1-Benzyl-3′-(4-methoxyphenyl)-1′H-spiro[azetidine-3,2′-quinazolin]-4′(3′H)-one]",1000 to 10000 nM
25,"O=C1c2ccc(F)cc2NC2(CN(C(c3cccc(F)c3)C(F)(F)F)C2)N1c1ccc(OC(F)(F)F)cc1 (stereo not shown) [Compound 53, 7′-Fluoro-1-(2,2,2-trifluoro-1-(3-fluorophenyl)ethyl)-3′-(4-(trifluoromethoxy)phenyl)-1′H-spiro[azetidine-3,2′-quinazolin]-4′(3′H)-one]",< 1000 nM
